From patent US6774131B1, “Remedies for endothelin-induced diseases” (Yamanouchi Pharmaceutical Co., Ltd., priority 2000, dated 2004) come the findings set out here.

Some results are limits rather than exact numbers.

For assay [1], the system named is MC3T3-E1, mouse osteoblast-like cells. Briefly: ET-1-induced DNA synthesis ([3H]-thymidine incorporation) in MC3T3-E1. The class given is cell-based. Here is the method: MC3T3-E1, mouse osteoblast-like cells, was used in these experiments (Journal of Cell Biology,96(1),191-198,1983).
As DNA synthesis level, the incorporation of [^3H]-labeled thymidine was assayed. The cells were seeded at a density of 1.5×10^4 cells/well in a 96-well plate using 0.2% FCS culture medium and cultured for 2 days. Subsequently, vehicle or ET-1 was added to the plate and cultured for 24 hours. Continuously, [^3H-methyl]-thymidine was added at 0.5 μCi/well to the culture and pulse-labeling performed for 6 hours. Continuously, SDS solution to a final concentration of 0.2% was added for solubilization of the cell, and after solubilization the radioactivity of [^3H-methyl]-thymidine used for DNA synthesis was counted with a liquid scintillation counter. As a control, the count of a culture to which the vehicle was added was defined 100%, thus the percentage increase of DNA synthesis was calculated. […]
The results are shown in the form of mean±standard error. The significant difference between groups was analyzed by one-way analysis of variance, to calculate the p-values by the Dunnett's multiple range test. […] At each experiment, the EC50 value of ET-1 and the IC50 value of the Compound 1 were calculated by the Logistic regression analysis.
A general note: Uptake of a labelled nucleoside into DNA is a usual measure of proliferation.

The subject of assay [2] is mouse formalin-induced pain model. Briefly: ET-1-induced enhancement of pain responses in mouse formalin-induced pain model. The assay is classed as in vivo. As for the experimental part: Suppressive effects of Compound 1 to the enhancement of pain responses induced by ET-1 in mouse formalin-induced pain model
Male ICR mice (age of 5 weeks; Nippon SLC) were used in these experiments.
The mice were placed in a cage for observation, to acclimate the mice to the environment for 5 minutes or longer; then, physiological saline of 20 μl was subcutaneously injected to the mouse left hind paws, while 0.7% formalin-containing physiological saline of 20 μl was subcutaneously injected to the mouse right hind paws. The duration of licking and biting reactions emerging immediately thereafter was counted every 5 minutes, for 40 minutes. After the termination of the counting, both the ankles were amputated and weighed. The reaction time immediately after formalin injection to 5 minutes later was defined as first phase; and the 30 minutes reaction time from 10 minutes after injection until 40 minutes later was defined in total as second phase, which were used as the indices of pain. Additionally, the edema calculated on the basis of the right foot weight minus the left foot weight (in mg) was used as an index of inflammatory reaction. Additionally, in all cases the licking reaction time was counted between 10:00 and 18:00.
0.7% formalin-containing physiological saline containing ET-1 at doses of 3, 10 and 30 pmol/paw was subcutaneously injected in the right hind paws to examine the action of ET-1 to enhance formalin-induced pain and edema.
Compound 1 (0.3 to 3 mg/kg) was orally administered at a dose of 1 ml/100 g. Sixty minutes after oral administration, 0.7% formalin-containing physiological saline containing ET-1 (10 pmol/paw) was subcutaneously injected in the right hind paws, to examine the effect of the Compound 1 on the ET-1-induced enhancements of formalin-induced pain and edema.
The results are shown in the form of mean±standard error. The significant difference between two groups was calculated the p-value by Students unpaired t-test. The significant difference between groups was analyzed by one-way analysis of variance, to calculate the p-values by the Dunnett's multiple range test. The p-value below 5% was defined as statistically significant.

For assay [3], the system named is PPC-1, hormone-refractory human prostate cancer cells. Kind of assay: ET-1-induced cell growth ([3H]-thymidine incorporation) of PPC-1. The class given is cell-based. As for the experimental part: PPC-1, hormone-refractory human prostate cancer cells, was used in these experiments (International Journal of Cancer,44,898-903,1989).
DNA synthesis level was measured as the index of cell growth. As DNA synthesis level, the incorporation of [^3H]-labeled thymidine was assayed. The cells were seeded at a density of 1×10^4 cells/well in a 96-well plate using no FCS-added culture medium and cultured for 5 days. Subsequently, vehicle or ET-1 was added to the plate and cultured for 24 hours. Continuously, [^3H-methyl]-thymidine was added at 0.5 μCi/well to the culture and pulse-labeling performed for 6 hours. Continuously, SDS solution to a final concentration of 0.2% was added for solubilization of the cell, and after solubilization the radioactivity of [^3H-methyl]-thymidine used for DNA synthesis was counted with a liquid scintillation counter. As a control, the count of a culture to which the vehicle was added was defined 100%, thus the percentage increase of DNA synthesis was calculated.
In this experiment, ET-1 and Compound 1 were within the concentration ranges of 10^−13 to 10^−6 M (10-fold dilution series) and 10^−10 to 3×10^−6 M (3-fold dilution series), respectively, as the final concentrations thereof. Compound 1 was added about 2 hr before the addition of ET-1.
The results are shown in the form of mean t standard error. The significant difference between groups was analyzed by one-way analysis of variance, and calculated the p-values by the Dunnett's multiple range test. The p-value below 5% was defined as statistically significant. The IC50 value of the Compound 1 were calculated by the Logistic regression analysis.

For assay [4] the test system is unchanged. Briefly: ET-1-induced cell growth (cell number, alamar blue) of PPC-1. The class given is cell-based. The following applies: for Cell growth (%): control = 100. As for the experimental part: PPC-1, hormone-refractory human prostate cancer cells, was used in these experiments(International Journal of Cancer,44,898-903,1989).
Cell number was counted by using a reagent solution of a alamar blue. The cells were seeded at 2×10^4 cells/well in a 24-well plate, after adhesion, the culture media were exchanged to culture media with no FCS-added, and further cultured for another 24 hours. Thereafter, vehicle or ET-1 (10^−11 to 10^−6 M) was added, and cultured for 96 hours. The final volume of the culture medium was 500 μl. Alamar blue of 50 μl was added to the culture, and incubated for 4 hours. After reaction, 100 μl portions collected from the individual wells of the 24-well plate were then transferred to a 96-well plate, and measured the absorbance (at a wave length of 405 nm and a reference wave length of 650 nm) with a plate reader. As a control, the count of a culture to which the vehicle was added was defined 100%, thus the percentage increase of cell number was calculated. The inhibitory effect of the compound was examined by adding the Compound 1 to a final concentration of 10^−9 to 10^−5 M, 30 minutes prior to the addition of ET-1 at 10^−7 M.
At the experiment, the culture medium was exchanged to a culture medium to which ET-1 was contained, 48 hours after stimulation, because the degradation of ET-1 was possible.

Where [5] appears, read: 0.3, 1 and 3 mg/kg p.o., 60 min before ET-1 10 pmol/paw.

For `COc1ccccc1Oc1c(NS(=O)(=O)C=Cc2ccccc2)nc(-c2ncccn2)nc1OC.[K]` [Compound 1, N-[6-methoxy-5-(2-methoxyphenoxy)-2-(2-pyrimidinyl)-4-pyrimidinyl]-2-phenylethenesulfoneamide•potassium salt], the IC50 in assay [1] (ET-1 10^−10 M, read-out: IC50 of ET-1-induced increase in [3H]-thymidine incorporation) came to 11.5 nM. Moreover, in assay [2] (setting [5]), the “suppression of ET-1-induced enhancement of formalin-induced edema” value was “significantly suppressed”; the “suppression of ET-1-induced enhancement of formalin-induced pain, first phase” value is given as “significantly suppressed”; the “suppression of ET-1-induced enhancement of formalin-induced pain, second phase” value is “significantly suppressed”. For the same molecule, the “concentration above which the inhibitory effect was statistically significant” value in assay [3] (ET-1 10^−8 M) is given as “above 3×10^−7 M”. In addition, in assay [3] (ET-1 10^−8 M, [3H]-thymidine incorporation, read-out: IC50 of ET-1-induced promotion of PPC-1 cell growth), the IC50 is 28 ± 9.8 nM. Also, in assay [4] (Compound 1 10^−5 M with ET-1 10^−7 M, n = 7), the “Cell growth (%)” value worked out at 98.1%. Besides, in assay [4] (Compound 1 10^−6 M with ET-1 10^−7 M, n = 7), the “Cell growth (%)” value stood at 99.2%. For the same molecule, the “concentration from which ET-1-induced cell growth was inhibited” value in assay [4] (ET-1 10^−7 M) is ≥ 10^−6 M.

“ET-1: endothelin; induces pain in humans and experimental animals; used as stimulus of pain, Ca2+ increase and cell growth [reference compound]”: the EC50 in assay [1] (ET-1 10^−13 to 10^−6 M, read-out: EC50 of increase of [3H]-thymidine incorporation (DNA synthesis)) amounted to 0.00984 nM. Moreover, the “ET-1-induced enhancement of formalin-induced edema” value in assay [2] (ET-1 3, 10 and 30 pmol/paw with 0.7% formalin s.c. in hind paw) is on record as “significantly enhanced”. Besides, the “ET-1-induced enhancement of formalin-induced pain, first phase” value in assay [2] (ET-1 3, 10 and 30 pmol/paw with 0.7% formalin s.c. in hind paw, 0-5 min) is “significantly enhanced”. Also, the “ET-1-induced enhancement of formalin-induced pain, second phase” value in assay [2] (ET-1 3, 10 and 30 pmol/paw with 0.7% formalin s.c. in hind paw, 10-40 min) is on record as “significantly enhanced”. The “concentration above which the effect of ET-1 on [3H]-thymidine incorporation was statistically significant” value in assay [3] is “above 10^−8 M”. In addition, the “concentration from which ET-1-induced cell growth was observed” value in assay [4] was ≥ 10^−11 M. The “Cell growth (%)” value in assay [4] (ET-1 10^−7 M, 96 h, n = 7 (Table 2)) worked out at 119.3%; in assay [4] (ET-1 10^−7 M, Compound 1 0 (Table 3), n = 7), 110.5%; in assay [4] (ET-1 10^−8 M, 96 h, n = 7) it was 115.3%; in assay [4] (ET-1 10^−9 M, 96 h, n = 7) it was 124.0%; in assay [4] (ET-1 10^−10 M, 96 h, n = 7) it was 122.3%; in assay [4] (ET-1 10^−11 M, 96 h, n = 7) it was 119.6%.
